In BindingDB's records for doi:10.1021/acs.jmedchem.1c00920 (Astrazeneca, 2021) one finds IC50 data, which are given here for 21 compounds.

The structures appear in SMILES notation.

In the assay the target is Tyrosine-protein kinase Mer (Homo sapiens) (UniProt Q12866). The assay can be described thus: Inhibition of FLAG-tagged MER (unknown origin) transfected in Cos-7cells assessed as phosphorylation level incubated for 1 hr by ELISA.
Tyrosine-protein kinase Mer (Homo sapiens), sequence (Q12866 whole entry, looked up): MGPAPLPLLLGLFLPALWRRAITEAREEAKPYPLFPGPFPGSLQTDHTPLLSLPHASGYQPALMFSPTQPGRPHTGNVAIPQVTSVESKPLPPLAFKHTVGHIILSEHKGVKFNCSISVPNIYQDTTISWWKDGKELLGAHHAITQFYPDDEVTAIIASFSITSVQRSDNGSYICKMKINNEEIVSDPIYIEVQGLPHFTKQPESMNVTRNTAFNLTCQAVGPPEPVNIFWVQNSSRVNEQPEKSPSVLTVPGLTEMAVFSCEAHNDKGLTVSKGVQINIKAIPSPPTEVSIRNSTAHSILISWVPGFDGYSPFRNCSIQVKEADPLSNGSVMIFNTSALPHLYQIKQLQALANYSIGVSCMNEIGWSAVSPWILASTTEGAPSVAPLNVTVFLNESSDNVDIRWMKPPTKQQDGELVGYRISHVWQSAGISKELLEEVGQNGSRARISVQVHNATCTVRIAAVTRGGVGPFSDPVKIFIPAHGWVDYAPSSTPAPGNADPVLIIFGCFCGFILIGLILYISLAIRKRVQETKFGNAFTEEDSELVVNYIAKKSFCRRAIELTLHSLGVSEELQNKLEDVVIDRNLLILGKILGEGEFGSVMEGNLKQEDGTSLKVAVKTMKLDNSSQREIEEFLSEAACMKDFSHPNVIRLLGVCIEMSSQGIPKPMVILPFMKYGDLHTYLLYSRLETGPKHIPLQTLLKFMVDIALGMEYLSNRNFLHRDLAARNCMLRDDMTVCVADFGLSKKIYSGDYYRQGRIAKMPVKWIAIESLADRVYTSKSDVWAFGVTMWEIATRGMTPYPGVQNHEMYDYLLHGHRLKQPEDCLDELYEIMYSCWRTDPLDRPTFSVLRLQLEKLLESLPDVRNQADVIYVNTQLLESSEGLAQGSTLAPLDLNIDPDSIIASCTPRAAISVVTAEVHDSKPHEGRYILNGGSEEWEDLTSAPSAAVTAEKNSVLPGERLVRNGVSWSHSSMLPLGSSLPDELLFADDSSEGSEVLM
For orientation: IC50 means the point on the concentration scale where inhibition reaches its midpoint. For `Cc1nn(C)c(C)c1-c1ccc(-c2nnc(N(C)Cc3ccc4nccn4c3)o2)cc1`, the IC50 came out at 200 nM.

In the case of `Cc1nn(C)c(C)c1-c1ccc(-c2nnc(N(C)Cc3ccc4nccn4c3)o2)c(F)c1`, the IC50 was determined as 316 nM. Then `COc1cc(-c2c(C)nn(C)c2C)ccc1-c1nnc(N(C)Cc2ccc3nccn3c2)o1`, with 501 nM.

Take `Cc1cc(-c2c(C)nn(C)c2C)ccc1-c1nnc(N(C)Cc2ccc3nccn3c2)o1`: the IC50 is 32 nM. To `Cc1cc(-c2c(C)nn(C)c2C)cnc1-c1nnc(N(C)Cc2ccc3nccn3c2)o1` belongs 794 nM.

In the case of `Cc1nc(-c2c(C)nn(C)c2C)ccc1-c1nnc(N(C)Cc2ccc3nccn3c2)o1`, the IC50 came out at 1580 nM. On to `Cc1cc(-c2c(C)n[nH]c2C)ccc1-c1nnc(N(C)Cc2ccc3nccn3c2)o1`, for which the IC50 worked out at 2510 nM. To `Cc1cc(-c2cnn(C)c2C)ccc1-c1nnc(N(C)Cc2ccc3nccn3c2)o1` belongs 79 nM. On to `Cc1cc(-c2c(C#N)nn(C)c2C)ccc1-c1nnc(N(C)Cc2ccc3nccn3c2)o1`, for which the half-maximal inhibitory concentration (IC50) was 316 nM.

With `Cc1cc(-c2c(C)nc(C)n2C)ccc1-c1nnc(N(C)Cc2ccc3nccn3c2)o1`, the IC50 turned out to be 501 nM. Take `Cc1cc(-c2c(C)nn(C)c2C)ccc1-c1nnc(N(C)Cc2ccc3ncc(C(=O)N(C)C)n3c2)o1`: the IC50 turned out to be 32 nM. As for `Cc1cc(-c2c(C)nn(C)c2C)ccc1-c1nnc(N(C)Cc2ccc3ncc(-c4ccccc4)n3c2)o1`, the IC50 came out at 32 nM. To `Cc1cc(-c2c(C)nn(C)c2C)ccc1-c1nnc(N(C)Cc2ccc3ncc(-c4cnn(C)c4)n3c2)o1` belongs 13 nM; to `Cc1cc(-c2c(C)nn(C)c2C)ccc1-c1nnc(N(C)Cc2ccc3ncc(C4CCN(C)CC4)n3c2)o1`, 251 nM; to `Cc1cc(-c2c(C)nn(C)c2C)ccc1-c1nnc(N(C)Cc2ccc3ncc(-c4cnn(CCN(C)C)c4)n3c2)o1`, 20 nM. Then `Cc1cc(-c2c(C)nn(C)c2C)cnc1-c1nnc(N(C)Cc2ccc3ncc(-c4cnn(CCN(C)C)c4)n3c2)o1`, with 200 nM. To `Cc1cc(-c2c(C)nn(C)c2C)cnc1-c1nnc(N(C)Cc2ccc3ncc(-c4ccc(CN(C)C)cc4)n3c2)o1` belongs 16 nM; to `Cc1cc(-c2c(C)nn(C)c2C)cnc1-c1nnc(N(C)Cc2ccc3ncc(-c4cccc(CN(C)C)c4)n3c2)o1`, 32 nM. `Cc1cc(-c2c(C)nn(C)c2C)cnc1-c1nnc(N(C)Cc2ccc3ncc(-c4ccc(CN(C)C)nc4)n3c2)o1`: the IC50 was 100 nM. Regarding `Cc1cc(-c2c(C)nn(C)c2C)cnc1-c1nnc(N(C)Cc2ccc3ncc(-c4ccc(CN(C)C)cn4)n3c2)o1`, the IC50 is 13 nM.

Consider `CN1CCN(Cc2ccc(-c3ccc(CO[C@H]4CCC[C@@H]4NC(=O)c4cc(-c5cnn(C)c5)cnc4N)cc3)cc2)CC1` [US10125118, Example 172], for which the IC50 stood at 7.9 nM.
